Read-outs that look alike come from different tables or passages of the source.
Experiments:
H1299 cells = test: Cell proliferation PAD assay, H1299; format: cell-based; settings: Homo sapiens, 48 hours
Summary of the method: (§1)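 Each line, seeded at 2,000 cells/well, received duplicate 6.3-fold compound dilutions (10 mM stock, diluted 500× into medium) one day after plating. Exposure lasted 48 h; fixed cells were DAPI-stained and photographed, and images were analysed for live, apoptotic and dead cell numbers.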

TRAF6/Uev1A/Ubc13 = biological target: T1, TRAF6/Uev1A/Ubc13 (Homo sapiens, UniProt Q9Y4K3); test: TRAF6/Uev1A/Ubc13 plate-based ubiquitin ligase assay; format: biochemical
T1 sequence (Q9Y4K3 1-522): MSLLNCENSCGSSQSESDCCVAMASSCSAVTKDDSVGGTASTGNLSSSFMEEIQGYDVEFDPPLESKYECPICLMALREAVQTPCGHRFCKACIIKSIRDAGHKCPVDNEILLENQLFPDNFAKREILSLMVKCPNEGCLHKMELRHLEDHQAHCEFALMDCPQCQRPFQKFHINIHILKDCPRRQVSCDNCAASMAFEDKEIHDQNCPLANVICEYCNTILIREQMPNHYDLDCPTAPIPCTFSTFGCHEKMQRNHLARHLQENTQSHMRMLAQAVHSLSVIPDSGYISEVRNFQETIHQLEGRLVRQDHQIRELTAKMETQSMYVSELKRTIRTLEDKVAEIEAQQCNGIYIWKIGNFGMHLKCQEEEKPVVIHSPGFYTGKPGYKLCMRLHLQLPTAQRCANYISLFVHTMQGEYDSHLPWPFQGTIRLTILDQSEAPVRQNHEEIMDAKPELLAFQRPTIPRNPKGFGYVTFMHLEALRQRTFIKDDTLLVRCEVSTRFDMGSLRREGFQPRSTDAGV
Summary of the method: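 Ligase activity was read as luminescence from anti-Flag/HRP detection of Flag-ubiquitin bound to casein-blocked Ni-plates alongside His-ubiquitin after a 1 h room-temperature reaction. Buffer: 62.5 mM Tris pH 7.5, 6.25 mM MgCl2, 1.0 mM DTT, 2 μM ATP; E1, Uev1a/Ubc13 and TRAF6 added last to start. IC50s derived across compound concentrations.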

U2OS cells = test: Cell proliferation PAD assay, U2OS; format: cell-based; settings: Homo sapiens, 6pt, 48 hours
Description: (§2) Table 3 illustrates the inhibitory activity of the compounds of the invention determined by the PAD assay described above in a number of cell types. Apoptosis was not
(§3) Cell lines used are available from American Type Culture Collection (ATCC), for example, cell cultures containing A549 (ATCC# CCL-185), HeLa (ATCC# CCL-2), HCT116 ATTC# CCL-247), and H1299 (ATCC# CRL-5803) cells were maintained in T175 flasks following the ATCC recommended media and handling procedures. […] A 20,000 cells/ml solution was made for plating. Cells were plated in black Packard 96 well plates by placing 100 μl per well (2,000 cells per well). […] The definitions of the cell types used are as follows: A549 is lung carcinoma; HI 299 is non-small cell lung carcinoma; HI 155 is non-small cell lung carcinoma; AsPC-1 is pancreatic adenocarcinoma; Caov-3 is ovarian adenocarcinoma; COLO 205 is colorectal adenocarcinoma; DLD-1 colorectal adenocarcinoma; HCT116 is colorectal carcinoma; DU 145 is prostate carcinoma; ES-2 is ovarian clear cell carcinoma; H460 is large cell lung carcinoma; HELA is cervical adenocarcinoma; MIA PaCa-2 is pancreatice carcinoma; OVCAR-3 is ovarian adenocarcinoma; OVCAR8 is ovarian carcinoma; PC3 is prostate adenocarcinoma; SK-OV-3 is ovarian adenocarcinoma; SU86.86 is pancreatic carcinoma; TOV-21G is avarian clear cell carcinoma; U2OS is bone osteosarcoma; is ASPC-I is pancreatic adenocarcinoma; BXPC-3 is pabcreatic adenocarcinoma; HL60 is promyeloblast promyelocytic leukemia; K562 is bone marrow chronic myelogenous leukemia; L1210 is mouse lymphocytic leukemia; MOLT3 is T lymphoblast acute lymphoblastic leukemia; MOLT4 is T lymphoblast acute lymphoblastic leukemia; SW620 is colorectal adenocarcinoma; THP-1 is monocyte acute monocytic leukemia; U937 is histiocytic lymphoma; and UACC-257 is melanoma.
(§4) Compounds and additional media were added 24 hours after cell plating. A compound master plate was created with concentrations 500 times greater than the final concentration added to the cells. All compound testing was done in duplicate using 6.3 fold dilutions starting with 10 mM. All outside wells (and 4 internal wells) were DMSO controls. Taxol and at least one additional control were run on all plates. Three microliters of the compound master plate were added to deep well blocks containing 750 μl of RPMI media. One hundred microliters were transferred from the compound/media deep well blocks to the plated cells resulting in a 500 fold dilution of the compounds. Cells were grown at 37° C., 5% CO2 for 48 hours.
(§5) Cells to be analyzed by photography were fixed and stained. One hundred microliters of media were removed and 100 μl of 9.3% formamide was added to each well. Plates were left on the benchtop for 45 minutes. A staining solution containing 1.55 μl of 1 mg/ml DAPI added to 18.75 ml PBS was warmed for 15 minutes at 37° C. The cells were aspirated prior to washing with 100 μl of PBS. Seventy microliters of PBS were aspirated and 170 μl of the DAPI solution were added to each well of fixed cells. Plates were left at room temperature for one hour then aspirated and washed twice with 100 μl of PBS. The stained cells were left at 4° C. for a minimum of 16 hours before photographic analysis with Array Scan II (Cellomics). Analysis of the photographic images to determine numbers of live cells (proliferation), apoptotic cells and dead cells, were according to the methods described in U.S. Utility patent application Ser. No. 10/652,440, which incorporated herein in its entirety.

A549 cells = test: Cell proliferation PAD assay, A549; format: cell-based; settings: Homo sapiens, 48 hours
Summary of the method: as §1

HELA cells = test: Cell proliferation PAD assay, HeLa; format: cell-based; settings: Homo sapiens, 6pt, 48 hours
Description: as §2, §3, §4, §5

DLD-1 cells = test: Cell proliferation PAD assay, DLD-1; format: cell-based; settings: Homo sapiens, DLD1 cells, 6pt, 48 hours
Description: as §2, §3, §4, §5

HCT116 cells = test: Cell proliferation PAD assay, HCT116; format: cell-based; settings: Homo sapiens, 48 hours
Description: as §2, §3, §4, §5

MIA PaCa-2 cells = test: Cell proliferation PAD assay, MIA PaCa-2; format: cell-based; settings: Homo sapiens, Miapaca2 cells, 9pt, 48 hours
Description: as §2
(§6) Cell lines used are available from American Type Culture Collection (ATCC), for example, cell cultures containing A549 (ATCC# CCL-185), HeLa (ATCC# CCL-2), HCT116 ATTC# CCL-247), and H1299 (ATCC# CRL-5803) cells were maintained in T175 flasks following the ATCC recommended media and handling procedures. […] A 20,000 cells/ml solution was made for plating. Cells were plated in black Packard 96 well plates by placing 100 μl per well (2,000 cells per well). […]
(§7) Cells to be analyzed by photography were fixed and stained. […]

COLO 205 cells = test: Cell proliferation PAD assay, COLO 205; format: cell-based; settings: Homo sapiens, Colo205 cells, 9pt, 48 hours
Description: as §2, §6, §7

[1] = NCI-H1299, 3pt, read-out: H1299 3pt
[2] = NCI-H1299, 6pt, read-out: H1299 6pt
[3] = HCT-116, 6pt, read-out: HCT116 6pt

Row | Compound | IC50 (H1299 cells; [1]) | IC50 (H1299 cells; [2]) | IC50 (TRAF6/Uev1A/Ubc13) | IC50 (U2OS cells) | IC50 (A549 cells; 3pt, read-out: A549 3pt) | IC50 (A549 cells; 6pt, read-out: A549 6pt) | IC50 (HELA cells) | IC50 (DLD-1 cells) | IC50 (HCT116 cells; [3]) | IC50 (MIA PaCa-2 cells) | IC50 (COLO 205 cells) | IC50 (HCT116 cells; HCT-116, 9pt, read-out: HCT116 9pt)
1 | Cc1cccc(N2CCN(S(=O)(=O)c3ccc(Cl)c4nonc34)CC2)n1 [compound 194, 4-chloro-7-{[4-(6-methylpyridin-2-yl)piperazin-1-yl]sulfonyl}-2,1,3-benzoxadiazole] | 1000 to 20000 nM | ≥ 20000 nM | ≥ 20000 nM | < 1000 nM | ≥ 20000 nM | ≥ 20000 nM | – | – | – | – | – | –
2 | O=S(=O)(c1ccc(Cl)c2nonc12)N1CCN(c2ncc(C(F)(F)F)cc2Cl)CC1 [compound 169, 4-chloro-7-({4-[3-chloro-5-(trifluoromethyl)pyridin-2-yl]piperazin-1-yl}sulfonyl)-2,1,3-benzoxadiazole] | ≥ 20000 nM | < 1000 nM | 1000 to 20000 nM | < 1000 nM | ≥ 20000 nM | 1000 to 20000 nM | – | – | – | – | – | –
3 | O=S(=O)(Nc1cccc2cccnc12)c1cccc2nonc12 [compound 64, N-quinolin-8-yl-2,1,3-benzoxadiazole-4-sulfonamide] | 1000 to 20000 nM | < 1000 nM | – | < 1000 nM | 1000 to 20000 nM | < 1000 nM | 1000 to 20000 nM | < 1000 nM | 1000 to 20000 nM | – | – | –
4 | CC1CN(S(=O)(=O)c2c(Cl)ccc3nonc23)CC(C)O1 (centres unmarked) [compound 204, 5-chloro-4-[(2,6-dimethylmorpholin-4-yl)sulfonyl]-2,1,3-benzoxadiazole] | < 1000 nM | < 1000 nM | ≥ 20000 nM | < 1000 nM | 1000 to 20000 nM | ≥ 20000 nM | 1000 to 20000 nM | < 1000 nM | 1000 to 20000 nM | – | – | –
5 | O=S(=O)(Nc1ccc2cn[nH]c2c1)c1c(Cl)ccc2nonc12 [compound 219, 5-chloro-N-1H-indazol-6-yl-2,1,3-benzoxadiazole-4-sulfonamide] | 1000 to 20000 nM | < 1000 nM | 1000 to 20000 nM | < 1000 nM | 1000 to 20000 nM | ≥ 20000 nM | ≥ 20000 nM | < 1000 nM | < 1000 nM | < 1000 nM | 1000 to 20000 nM | < 1000 nM

The next lines start with the values.

Row | IC50 (H1299 cells; [1]) | IC50 (H1299 cells; [2]) | IC50 (TRAF6/Uev1A/Ubc13) | IC50 (U2OS cells) | IC50 (A549 cells; 3pt, read-out: A549 3pt) | IC50 (A549 cells; 6pt, read-out: A549 6pt) | IC50 (HELA cells) | IC50 (DLD-1 cells) | IC50 (HCT116 cells; [3]) | IC50 (MIA PaCa-2 cells) | IC50 (COLO 205 cells) | IC50 (HCT116 cells; HCT-116, 9pt, read-out: HCT116 9pt) | Compound
6 | 1000 to 20000 nM | 1000 to 20000 nM | < 1000 nM | ≥ 20000 nM | 1000 to 20000 nM | 1000 to 20000 nM | – | – | – | – | – | – | O=S(=O)(c1ccc(F)c2nonc12)N1CCN(c2ncc(C(F)(F)F)cc2Cl)CC1 [compound 164, 4-({4-[3-chloro-5-(trifluoromethyl)pyridin-2-yl]piperazin-1-yl}sulfonyl)-7-fluoro-2,1,3-benzoxadiazole]
7 | 1000 to 20000 nM | 1000 to 20000 nM | ≥ 20000 nM | 1000 to 20000 nM | ≥ 20000 nM | ≥ 20000 nM | 1000 to 20000 nM | 1000 to 20000 nM | 1000 to 20000 nM | – | – | – | O=S(=O)(Nc1ccc2[nH]ncc2c1)c1ccc(Cl)c2nonc12 [compound 218, 7-chloro-N-1H-indazol-5-yl-2,1,3-benzoxadiazole-4-sulfonamide]

Source: patent publication US20050282818A1, “Ubiquitin ligase inhibitors” (Rigel Pharmaceuticals, Inc., priority 2004, published 2005)
